Key:
Test in all cases: Test C pre/postemergence
Format in all cases: in vivo
[1] = tested on: woolly cupgrass (Eriochloa villosa); conditions: Eriochloa villosa, post-emergence, Postemergence
Procedure, shortened: (§1)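 Greenhouse herbicide screen, visual readout. Compound in solvent/surfactant applied preemergence at planting or postemergence to 1- to 4-leaf plants; assessed at 12–14 days on a 0–100 control scale.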

[2] = tested on: kochia (Kochia scoparia); conditions: Bassia scoparia, post-emergence, Postemergence
Procedure, shortened: as §1

[3] = tested on: bermudagrass (Cynodon dactylon); conditions: Cynodon dactylon, post-emergence, Postemergence
Procedure, shortened: as §1

[4] = tested on: Surinam grass (Brachiaria decumbens); conditions: Urochloa decumbens, post-emergence, Postemergence
Procedure, shortened: as §1

[5] = tested on: johnsongrass (Sorghum halepense); conditions: Sorghum halepense, post-emergence, Postemergence
Procedure, shortened: as §1

[6] = tested on: common ragweed (Ambrosia elatior); conditions: Ambrosia artemisiifolia, post-emergence, Postemergence
Procedure, shortened: as §1

[7] = tested on: cocklebur (Xanthium strumarium); conditions: Xanthium strumarium, post-emergence, Postemergence
Procedure, shortened: as §1

[8] = tested on: pigweed (Amaranthus retroflexus); conditions: Amaranthus retroflexus, post-emergence, Postemergence
Procedure, shortened: as §1

[9] = tested on: corn (Zea mays); conditions: Zea mays, post-emergence, Postemergence
Procedure, shortened: as §1

[10] = tested on: morningglory (Ipomoea coccinea); conditions: Ipomoea, post-emergence, Postemergence
Procedure, shortened: as §1

`COC(=O)c1nc(C2CC2)nc(N)c1I` [Compound 7] gave a pest or weed control at 62 g/ha ([1]; 62 g ai/ha, scale 0 to 100 (0 no effect, 100 complete control), read-out: Cupgrass, Woolly plant response rating) of 0%, a pest or weed control at 125 g/ha ([1]; 125 g ai/ha, scale 0 to 100 (0 no effect, 100 complete control), read-out: Cupgrass, Woolly plant response rating) of 0% and a pest or weed control at 250 g/ha ([1]; 250 g ai/ha, scale 0 to 100, read-out: Plant response rating, Cupgrass, Woolly) of 0%. It also gave a pest or weed control at 500 g/ha ([1]; 500 g ai/ha, scale 0 to 100, read-out: Plant response rating, Cupgrass, Woolly) of 20%, a pest or weed control at 62 g/ha ([2]; 62 g ai/ha, scale 0 to 100 (0 no effect, 100 complete control), read-out: Kochia plant response rating) of 40% and a pest or weed control at 125 g/ha ([2]; 125 g ai/ha, scale 0 to 100 (0 no effect, 100 complete control), read-out: Kochia plant response rating) of 65%. It also gave a pest or weed control at 250 g/ha ([2]; 250 g ai/ha, scale 0 to 100, read-out: Plant response rating, Kochia) of 70%, a pest or weed control at 500 g/ha ([2]; 500 g ai/ha, scale 0 to 100, read-out: Plant response rating, Kochia) of 80% and a pest or weed control at 62 g/ha ([3]; 62 g ai/ha, scale 0 to 100 (0 no effect, 100 complete control), read-out: Bermudagrass plant response rating) of 0%. For the same compound, the pest or weed control at 125 g/ha ([3]; 125 g ai/ha, scale 0 to 100, read-out: Plant response rating, Bermudagrass) was 0%, the pest or weed control at 250 g/ha ([3]; 250 g ai/ha, scale 0 to 100, read-out: Plant response rating, Bermudagrass) was 0% and the pest or weed control at 500 g/ha ([3]; 500 g ai/ha, scale 0 to 100, read-out: Plant response rating, Bermudagrass) was 0%. It also gave a pest or weed control at 125 g/ha ([4]; 125 g ai/ha, scale 0 to 100 (0 no effect, 100 complete control), read-out: Surinam Grass plant response rating) of 0%, a pest or weed control at 500 g/ha ([4]; 500 g ai/ha, scale 0 to 100, read-out: Plant response rating, Surinam Grass) of 0% and a pest or weed control at 62 g/ha ([4]; 62 g ai/ha, scale 0 to 100 (0 no effect, 100 complete control), read-out: Surinam Grass plant response rating) of 0%. It also gave a pest or weed control at 250 g/ha ([4]; 250 g ai/ha, scale 0 to 100, read-out: Plant response rating, Surinam Grass) of 0%, a pest or weed control at 62 g/ha ([5]; 62 g ai/ha, scale 0 to 100 (0 no effect, 100 complete control), read-out: Johnsongrass plant response rating) of 0% and a pest or weed control at 125 g/ha ([5]; 125 g ai/ha, scale 0 to 100 (0 no effect, 100 complete control), read-out: Johnsongrass plant response rating) of 0%. The pest or weed control at 250 g/ha ([5]; 250 g ai/ha, scale 0 to 100, read-out: Plant response rating, Johnsongrass) was 0%, the pest or weed control at 500 g/ha ([5]; 500 g ai/ha, scale 0 to 100, read-out: Plant response rating, Johnsongrass) was 0% and the pest or weed control at 62 g/ha ([6]; 62 g ai/ha, scale 0 to 100 (0 no effect, 100 complete control), read-out: Ragweed plant response rating) was 25%. The pest or weed control at 125 g/ha ([6]; 125 g ai/ha, scale 0 to 100 (0 no effect, 100 complete control), read-out: Ragweed plant response rating) was 35%, the pest or weed control at 250 g/ha ([6]; 250 g ai/ha, scale 0 to 100, read-out: Plant response rating, Ragweed) was 65% and the pest or weed control at 500 g/ha ([6]; 500 g ai/ha, scale 0 to 100, read-out: Plant response rating, Ragweed) was 75%. The pest or weed control at 62 g/ha ([7]; 62 g ai/ha, scale 0 to 100 (0 no effect, 100 complete control), read-out: Cocklebur plant response rating) was 30%, the pest or weed control at 125 g/ha ([7]; 125 g ai/ha, scale 0 to 100 (0 no effect, 100 complete control), read-out: Cocklebur plant response rating) was 30% and the pest or weed control at 250 g/ha ([7]; 250 g ai/ha, scale 0 to 100, read-out: Plant response rating, Cocklebur) was 30%. The pest or weed control at 500 g/ha ([7]; 500 g ai/ha, scale 0 to 100, read-out: Plant response rating, Cocklebur) was 30%, the pest or weed control at 62 g/ha ([8]; 62 g ai/ha, scale 0 to 100 (0 no effect, 100 complete control), read-out: Pigweed plant response rating) was 20% and the pest or weed control at 125 g/ha ([8]; 125 g ai/ha, scale 0 to 100 (0 no effect, 100 complete control), read-out: Pigweed plant response rating) was 40%. The pest or weed control at 250 g/ha ([8]; 250 g ai/ha, scale 0 to 100, read-out: Plant response rating, Pigweed) was 40%, the pest or weed control at 500 g/ha ([8]; 500 g ai/ha, scale 0 to 100, read-out: Plant response rating, Pigweed) was 55% and the Corn plant response rating (crop injury, 0 = no effect, 100 = complete kill) at 62 g/ha ([9]; 62 g ai/ha, scale 0 to 100 (0 no effect, 100 complete control), read-out: Corn plant response rating) was 0%. For the same compound, the Corn plant response rating (crop injury, 0 = no effect, 100 = complete kill) at 125 g/ha ([9]; 125 g ai/ha, scale 0 to 100 (0 no effect, 100 complete control), read-out: Corn plant response rating) was 0%, the Corn plant response rating (crop injury, 0 = no effect, 100 = complete kill) at 250 g/ha ([9]; 250 g ai/ha, scale 0 to 100) was 0% and the Corn plant response rating (crop injury, 0 = no effect, 100 = complete kill) at 500 g/ha ([9]; 500 g ai/ha, scale 0 to 100) was 0%. The pest or weed control at 125 g/ha ([10]; 125 g ai/ha, scale 0 to 100 (0 no effect, 100 complete control), read-out: Morningglory plant response rating) was 50%, the pest or weed control at 250 g/ha ([10]; 250 g ai/ha, scale 0 to 100, read-out: Plant response rating, Morningglory) was 55% and the pest or weed control at 500 g/ha ([10]; 500 g ai/ha, scale 0 to 100, read-out: Plant response rating, Morningglory) was 65%.

— patent publication US8802597B2, “Herbicidal pyrimidines” (E I du Pont de Nemours and Company, priority 2003, dated 2014)
